The text below walks through data of article PMC9607266, “Drug–Drug Interaction Study to Evaluate the Pharmacokinetics, Safety, and Tolerability of Ipatasertib in Combination with Darolutamide in Patients with Advanced Prostate Cancer” (Pharmaceutics, 2022).

Broadly, the Cmax is the highest concentration seen after dosing. Usually AUC(0-t) stands for exposure summed from dosing to a finite time, without extrapolation to infinity. For orientation: Tmax means the time at which the peak concentration occurs.

Each structure is given as a SMILES string. Read-outs that look alike come from different tables or passages of the source.

Data set [1] in a line: Phase Ib DDI study: plasma PK of ipatasertib and M1 after ipatasertib 400 mg QD alone and with darolutamide 600 mg BID. The class given is in vivo. As to conditions: male, human, oral. On the procedure:
(§1) Figure 1 presents an overview of the study design.
Stable labeled internal standards were used for both analytes.
Only median, min, and max were evaluated for Tmax.
Pharmacokinetic parameters (area under the curve (AUC0–tau) and Cmax,ss) were compared between Day 10 of Cycle 1 (ipatasertib alone, as the reference treatment) and Day 28 of Cycle 1 (combination of ipatasertib and darolutamide, as the test treatment) using SAS Version 9.4 by calculating geometric mean ratios and corresponding 90% confidence intervals (CIs) to evaluate the effect of darolutamide on the PK of ipatasertib and M1. A linear mixed model with a fixed effect for treatment and a random effect for patients was used on the natural log-transformed pharmacokinetic parameters. Point estimates for the means and point estimates and corresponding 90% confidence intervals (CIs) for the differences in means between the two treatments (reference and test treatments) were obtained from the linear mixed effects model and then exponentiated to obtain geometric means, geometric mean ratios, and respective 90% CIs on the original scale.

Data set [2] in a line: Phase Ib DDI study: safety and tolerability (adverse events, ECG). The class given is in vivo, human.
From the text: as §1
The primary objectives of the study were to characterize the effect of darolutamide on the PK of ipatasertib and its M1 (G-037720) metabolite when administered alone versus in combination with darolutamide and to evaluate the safety and tolerability of the ipatasertib–darolutamide combination. The PK endpoints of the study were to evaluate the plasma PK parameters of ipatasertib and its M1 metabolite and evaluate the PK of darolutamide and its metabolite keto-darolutamide at a steady state of the combination treatment and compare this to historical data. Medications known to impact the PK of ipatasertib or darolutamide (both CY3PA4 substrates) were refrained from being administered during the study conducted and accordingly not co-administered. The safety endpoints of the study were to evaluate the incidences, nature, and severity of AEs and laboratory abnormalities, changes in vital signs, exposure to the study treatment, and to evaluate the changes in ECG parameters with particular focus on the QT interval corrected through the use of Fridericia’s formula (QTcF). The study achieved the first patient first visit on 21 December 2020, and the cut-off date for primary PK and safety analysis presented within this manuscript was 31 August 2021.
The safety and tolerability assessments consisted of monitoring and recording AEs, including SAEs and AEs of special interest, clinical laboratory assessments, vital signs, a 12 lead ECG, and physical examination. The AEs were recorded from the first admission until the discontinuation of visits. The AE severity was graded from Grade 1 to Grade 5 as per the National Cancer Institute Common Terminology Criteria for Adverse Events version 5.0. The relationship between the AEs and the study drug was indicated as related or not related. The AE terms reported were coded using the standard Medical Dictionary for Regulatory Activities version 24.0’s preferred terms. In order to manage any drug-related toxicities, ipatasertib and darolutamide modifications were specified as follows: An ipatasertib dose could be reduced in decrements of 100 mg up to 200 mg (can be reduced to two dose levels) beyond which the patient must discontinue ipatasertib but may continue treatment with darolutamide. In the case of darolutamide, the dose could be reduced from 600 mg BID to 300 mg BID until symptoms improve. Treatment may then be resumed at a dose of 600 mg, twice daily. A dose reduction below 300 mg BID for darolutamide was not recommended.

For data set [3] the following is noted: cited from earlier work.
The conditions of data set [4]: cited from earlier work. This is another data set of the same source.
In data set [5] the test system is CYP3A4. On the set-up: method as in PMID 35428895. As to conditions: PBPK simulations, ipatasertib 400 mg QD; cited from earlier work.
On the set-up of data set [6]: method as in PMID 27872130. As to conditions: cited from earlier work.
The test system of data set [7] is CYP3A4. As to conditions: in vitro studies; cited from earlier work.
For data set [8], the system named is CYP3A4. As to conditions: cited from earlier work.
Data set [9] can be described thus: Phase Ib DDI study: plasma PK of darolutamide and keto-darolutamide at steady state in combination with ipatasertib. As to conditions: human, in vivo. On the procedure:
This was an open-label, multicenter, Phase Ib study designed to assess the safety, tolerability, and the drug–drug interaction of the combined administration of 400 mg QD oral ipatasertib and 600 mg BID oral darolutamide. […] For this study, no prospective calculations of the statistical power were made; the sample size selected was based on a typical sample size used for DDI studies. […] Figure 1 presents an overview of the study design.
Plasma concentrations of ipatasertib and its metabolite M1 were determined using a previously reported, validated liquid chromatography–tandem mass spectrometry assay (LC-MS/MS). The lower and upper limit of the quantitation for ipatasertib and M1 was 0.500 ng/mL and 400 ng/mL, respectively. Stable labeled internal standards were used for both analytes. Plasma concentrations of darolutamide and keto-darolutamide were determined by a validated bioanalytical assay using supported liquid extraction and LC-MS/MS detection by Labcorp Early Drug Development Laboratories Inc. (Madison, WI, USA). […] The diastereomers of darolutamide, (S, R)-darolutamide, and (S, S)-darolutamide, were quantified as one entity from a single chromatographic peak. The MS/MS transitions monitored for detection were m/z 399.2 to 178.1 for darolutamide, m/z 397.1 to 136.0 for keto-darolutamide, and 478.2 to 221.0 for the internal standard apalutamide. […]

The conditions of data set [10]: human, in vivo; cited from earlier work.
Setting [11] is: itraconazole, strong CYP3A4 and P-gp inhibitor, 100 mg ipatasertib.

With `CC(C)NC[C@@H](C(=O)N1CCN(c2ncnc3c2[C@H](C)C[C@H]3O)CC1)c1ccc(Cl)cc1` [Ipatasertib], in [1] (400 mg, Reference = ipatasertib only, n = 13, linear mixed model, read-out: AUC0–tau,ss, Reference Geometric Mean), the AUC amounted to 2610 ng·h/mL. Further, the Cmax in data set [1] (400 mg, Reference = ipatasertib only, n = 13, linear mixed model, read-out: Cmax,ss, Reference Geometric Mean) was 452 ng/mL. Moreover, the peak concentration (Cmax) in [1] (400 mg, ipatasertib 400 mg QD alone, Cycle 1 Day 10, n = 14, geometric mean (%CV), read-out: Cmax,ss) was 462 ng/mL. Moreover, in [1] (400 mg, ipatasertib 400 mg QD alone, Cycle 1 Day 10, n = 14, geometric mean (%CV), tau = 24 h, mCRPC patients, read-out: AUC0–tau,ss), the AUC was 2660 ng·h/mL. In addition, the AUC in data set [1] (Test = ipatasertib with darolutamide, n = 13, linear mixed model, read-out: AUC0–tau,ss, Test Geometric Mean) was 2400 ng·h/mL. In addition, in data set [1] (Test = ipatasertib with darolutamide, n = 13, linear mixed model, read-out: Cmax,ss, Test Geometric Mean), the peak concentration (Cmax) was found to be 355 ng/mL. The area under the curve AUC(0-t) in data set [1] (ipatasertib 400 mg QD alone, Cycle 1 Day 10, n = 14, geometric mean (%CV)) is 2670 ng·h/mL. For the same compound, the Tmax in data set [1] (ipatasertib 400 mg QD alone, Cycle 1 Day 10, n = 14, median (min, max)) stood at 1.04 h. Moreover, the AUC(0-t) in data set [1] (ipatasertib 400 mg QD with darolutamide 600 mg BID, Cycle 1 Day 28, n = 13, geometric mean (%CV)) worked out at 2400 ng·h/mL. In addition, in data set [1] (ipatasertib 400 mg QD with darolutamide 600 mg BID, Cycle 1 Day 28, n = 13, geometric mean (%CV), read-out: Cmax,ss), the Cmax was 355 ng/mL. The AUC in [1] (ipatasertib 400 mg QD with darolutamide 600 mg BID, Cycle 1 Day 28, n = 13, geometric mean (%CV), tau = 24 h, read-out: AUC0–tau,ss) was 2400 ng·h/mL. In addition, the Tmax in [1] (ipatasertib 400 mg QD with darolutamide 600 mg BID, Cycle 1 Day 28, n = 13, median (min, max)) stood at 2 h. Besides, the “Total number of deaths” value in [2] (N = 14) amounted to 0. In data set [2] (male, human, in vivo), the “patients with at least one AE leading to discontinuation of darolutamide” value was 0 n (%), the “patients with at least one AE leading to discontinuation of ipatasertib” value is 0 n (%), the “patients with at least one AE leading to dose interruption of darolutamide” value is 0 n (%) and the “patients with at least one AE leading to dose interruption of ipatasertib” value is recorded as 0 n (%). Moreover, in data set [2] (male, human, in vivo), the “patients with at least one AE leading to dose reduction of darolutamide” value is given as 0 n (%), the “patients with at least one AE leading to dose reduction of ipatasertib” value is 0 n (%), the “patients with at least one AE related to any treatment” value was 1 (7.1) n (%) and the “patients with at least one AE related to darolutamide only” value is given as 0 n (%). Further, in [2] (male, human, in vivo), the “patients with at least one AE related to ipatasertib only” value is recorded as 1 (7.1) n (%), the “patients with at least one Grade 5 AE” value is on record as 0 n (%), the “patients with at least one Grade ≥ 3 AE” value is 0 n (%) and the “patients with at least one Serious AE” value is listed as 0 n (%). Besides, in data set [2] (male, human, in vivo), the “patients with at least one: Any treatment discontinuation” value is on record as 0 n (%) and the “patients with diarrhea of Grade 1” value was 7.1%. The time to steady-state in [3] (400 mg QD dose) is ≤ 7 days. Moreover, the “median time to maximum concentration (Tmax)” value in [3] (across 25–800 mg doses in patients with cancer) is 0.5 to 3 h. Moreover, the “exposures following a high-fat meal versus fasted conditions” value in [3] is given as “comparable”. Also, the “median half-life (t1/2)” value in data set [3] (oral doses in the range of 200–800 mg, range 27.8–66.9 h) is listed as 45.0 h. Moreover, in [4] (dedicated drug–drug interaction study), the “increase in exposures when combined with abiraterone” value was “approximately 1.5 fold”. For the same compound, in data set [4] (enzalutamide, strong CYP3A4 inducer), the “decrease in ipatasertib exposure when combined with enzalutamide” value was “approximately 50%”. Besides, in data set [4] (setting [11]), the “increase in AUC0–∞ when combined with itraconazole” value is recorded as 5.45 fold and the “increase in Cmax when combined with itraconazole” value is given as 2.26 fold. The “expected increase in midazolam exposure (AUC0–∞)” value with CYP3A4 [5] was “approximately 1.69 fold”. Moreover, the “human plasma protein binding” value in data set [6] is listed as “low”. The “CYP3A4 inhibition in vitro” value in the data set on CYP3A4 [7] was “time-dependent inhibitor of CYP3A4”. For the same compound, the “increase in midazolam AUC0–∞ exposures” value in the data set on CYP3A4 [8] (ipatasertib at 600 mg QD) is reported as 2.22 fold.

In the case of `CC(=O)c1cc(C(=O)N[C@@H](C)Cn2ccc(-c3ccc(C#N)c(Cl)c3)n2)[nH]n1` [Keto-darolutamide, keto-darolutamide], the “Tmax,ss” value in [9] is given as 4.13 (1.00, 8.25) h. In data set [10], the “AUC0–12 h,ss” value was 82800 ng·h/mL, the “AUC0–t,ss” value was 82.8 (39.5) h·µg/mL, the “Cmax,ss” value is 9.4 (35.4) µg/mL and the “effective t1/2” value was “approximately 20 h”.

Take `CNC(=O)c1ccc(N2C(=S)N(c3ccc(C#N)c(C(F)(F)F)c3)C(=O)C2(C)C)cc1F` [enzalutamide]: the “reduction of midazolam exposures” value with CYP3A4 [8] (midazolam in combination with enzalutamide, strong CYP3A4 inducer) is “approximately 85%”.
